Measured values as given in patent publication EP1218024B1, “ASPARTAME DERIVATIVES FOR DECREASING BLOOD VISCOSITY” (Oklahoma Medical Research Foundation, priority 1999, dated 2001).
Where a SMILES comes first, the peptide text is derived from it.

Legend:
whole blood viscosity [1] = assay: Whole blood viscosity by RBC pipette method after in vitro addition of APM to patient blood samples; design: species or system patients; details: for viscosity of the blood samples compared to the control: samples at 480 minutes post-treatment, additional 1 or 2 milligrams/milliliter APM in vitro
Method: (§1) To measure viscosity, 1.01 cc of the test fluid, i.e., either water, saline or blood, was drawn into an RBC pipette using a 50 cc syringe attached via rubber tubing to the top of the RBC pipette. Using a constant pressure of 20 mm by maintaining the pressure with visual feedback and hand pressure, the amount of time it took for the test fluid to drip out of the RBC pipette was measured with a stopwatch. Each measurement was made in triplicate. Changes in viscosity from baseline for patient blood samples were recorded and compared to normal controls.
Samples with high viscosity readings at 480 minutes or 1,440 minutes post-treatment, chosen to represent patients with a validated response to APM who were returning to normal, were divided and treated with an additional 0, 1, or 2 milligrams/milliliter APM in vitro, in an effort to measure whether a second inducible sickling response was possible and if a second response to the in vitro APM addition could be observed. The viscosity of each sample at 480 minutes post-treatment was measured.

whole blood viscosity [2] = assay: Whole blood viscosity by RBC pipette method, before and after oral APM administration to patients; type: in vivo
Method: Blood samples were obtained from ten patients having homozygous HgBss disease or heterozygous Hgbsc disease before and after a blinded administration of APM at 1.5 (low dose), 3 (medium dose), or 6 (high dose) milligrams per kilogram body weight. TABLE I: Patient Characteristics
Viscosity determinations using the RBC pipette method of Wright and Jenkins (1970, Blood 36:516) were made on each blinded whole blood sample before and 120 minutes after blinded administration of APM. Each measurement was made in triplicate. Control viscosity measurements using saline and water for each patient and normal whole blood were also made to validate the viscosity measurements.
as §1

[3] = system: red blood cells containing HbS; details: disclosed in WO 00/18418; cited from earlier work
[4] = clinical trial; unknown mechanism; cited from earlier work
sickle cells = assay: Metabisulfite slide test to measure sickling in blood samples; type: cell-based, patients
[5] = all ten patients, baseline vs 120 minutes post-treatment, APM 1.5, 3 or 6 mg/kg body weight

SMILES: COC(=O)[C@H](Cc1ccccc1)NC(=O)[C@@H](N)CC(=O)O [APM, N-L-alpha-aspartyl-L-phenylalanine 1-methyl ester] (H-Asp-Phe-OMe)
- effect on Hgbsc blood (whole blood viscosity [1]; APM in vitro): not affected
- viscosity of the blood samples compared to the control (whole blood viscosity [1]; HgBss patients): decreased
- viscosity of the blood samples compared to the control (whole blood viscosity [1]; Hgbsc patients): increase
- viscosity of HgBss blood (whole blood viscosity [1]; addition of APM in vitro): reduces
- viscosity of HgBss blood (whole blood viscosity [2]; APM given orally): reduces
- effect on Hgbsc blood (whole blood viscosity [2]; APM in vivo): not affected
- No. of Patients, Viscosity change decreasing, HgBss (whole blood viscosity [2]; HgBss patients, baseline vs 120 minutes post-treatment): 5
- No. of Patients, Viscosity change increasing, Hgbsc (whole blood viscosity [2]; Hgbsc patients, baseline vs 120 minutes post-treatment): 3
- No. of Patients, Viscosity change decreasing (whole blood viscosity [2]; [5]): 7
- No. of Patients, Viscosity change increasing (whole blood viscosity [2]; [5]): 3
- viscosity compared against Pirofsky's change in viscosity vs. hematocrit standard (whole blood viscosity [2]; blood samples from patients with sickle cell disease (HgBss)): decreased
- viscosity compared against Pirofsky's change in viscosity vs. hematocrit standard (whole blood viscosity [2]; blood samples from patients with sickle cell trait (Hbgsc)): increased
- blood viscosity after treatment over time (whole blood viscosity [2]; five patients identified as HgBss, baseline vs 120 minutes post-treatment): decreased
- No. of Patients, Viscosity change decreasing, sbthal (whole blood viscosity [2]; sbthal patients, baseline vs 120 minutes post-treatment): 2
- viscosity after treatment over time (whole blood viscosity [2]; three patients diagnosed as Hgbsc, baseline vs 120 minutes post-treatment): increased
- blood viscosity after treatment over time (whole blood viscosity [2]; two patients diagnosed as sbthal, baseline vs 120 minutes post-treatment): decreased
- capacity of red blood cells containing HbS to sickle with hypoxemia [3]: reduction
- pain and inflammation of osteo- and mixed osteo- and rheumatoid arthritis [4]: alleviate
- number of sickle cells in HgBss blood (sickle cells; APM given orally): reduces
- number of sickle cells in HgBss blood (sickle cells; addition of APM in vitro): reduces
